# Data published in ChEMBL document CHEMBL3856234, “Development of Multifunctional Pyrimidinylthiourea Derivatives as Potential Anti-Alzheimer Agents” (J Med Chem, 2016).
# Active and inactive are the calls of the source. No cut-off for these calls is given here.
# Columns and labels:
# [1] = Solubility of the compound in water measured after 24 hrs by HPLC analysis; assay type: physicochemical
# [2] = Ratio of drug level in brain hippocampus to plasma in ICR mouse at 200 mg/kg administered through oral gavage; assay type: ADME, organism-based; details: read-out: logBB (converted)
# [3] = Drug uptake in ICR mouse brain cortex at 200 mg/kg administered through oral gavage measured after 1 hr by LC-MS/MS analysis; assay type: ADME, organism-based; details: read-out: Drug uptake
# [4] = Drug uptake in ICR mouse brain hippocampus at 200 mg/kg administered through oral gavage measured after 1 hr by LC-MS/MS analysis; assay type: ADME, organism-based; details: read-out: Drug uptake
# [5] = Ratio of drug level in brain cortex to plasma in ICR mouse at 200 mg/kg administered through oral gavage; assay type: ADME, organism-based; details: read-out: logBB (converted)
# [6] = Plasma concentration in ICR mouse at 200 mg/kg administered through oral gavage measured after 1 hr by LC-MS/MS analysis; assay type: ADME, organism-based
# [7] = tested on: Mus musculus; assay: Cognitive enhancing effect against scopolamine-induced memory deficit in ICR mouse assessed as reduction in number of errors at 200 mg/kg, po administered through gavage 1 hr before scopolamine-challenge measured after 20 mins by passageway water maze test; assay type: functional, organism-based
# [8] = species on record: Rattus norvegicus; assay: Inhibition of rat serum BuChE at 40 uM using butyrylthiocholine as substrate measured after 20 mins by Ellman's method relative to control
# [9] = tested on: Mus musculus; assay: Cognitive enhancing effect against scopolamine-induced memory deficit in ICR mouse assessed as reduction in escape latency at 200 mg/kg, po administered through gavage 1 hr before scopolamine-challenge measured after 20 mins by passageway water maze test; assay type: functional, organism-based
# [10] = tested on: SH-SY5Y; assay: Neuroprotective activity in human SH-SY5Y cells assessed as protection against Cu2+ induced amyloid-beta (1 to 42) neurotoxicity by measuring increase in cell viability at compound:amyloid-beta (1 to 42):Cu2+ ratio of 2:1:1 after 24 hrs by MTT assay relative to control; assay type: functional, cell-based
# [11] = Antioxidant activity assessed as trolox equivalent of AAPH radical scavenging activity preincubated for 10 mins followed by AAPH challenge measured every min for 180 mins by ORAC-FL assay; assay type: functional
# [12] = Inhibition of cupric ion-induced aggregation of amyloid beta (1 to 42) (unknown origin) at 50 uM measured after 24 hrs by dot blot assay
# [13] = species on record: Rattus norvegicus; assay: Selectivity index, ratio of IC50 for rat serum BuChE to IC50 for rat cortex AChE
# [14] = Antioxidant activity assessed as inhibition of Cu2+-induced CCA […] to 7-hydroxy-CCA by measuring decrease in hydroxyl radical production at 10 uM in presence of ascorbate by fluorescence assay
# [15] = Inhibition of cupric ion-induced aggregation of amyloid beta (1 to 42) (unknown origin) at compound:amyloid beta (1 to 42):Cu2+ ratio of 2:1:1 measured after 24 hrs by TEM analysis
# [16] = Metal chelating activity assessed as Zn2+-compound complex formation at 40 uM measured after 1 hr by UV-vis spectroscopic analysis; assay type: physicochemical
# [17] = Metal chelating activity assessed as Fe2+-compound complex formation at 40 uM measured after 1 hr by UV-vis spectroscopic analysis; assay type: physicochemical
# [18] = Permeability of the compound in PBS/EtOH (7:3) buffer measured after 10 hrs by PAMPA assay; assay type: ADME; details: read-out: Peff
# [19] = Cytotoxicity against human SH-SY5Y cells assessed as reduction in cell viability at 100 uM measured after 24 hrs by MTT assay; assay type: toxicity, cell-based
# [20] = Metal chelating activity assessed as Cu2+-compound complex formation at 40 uM measured after 1 hr by UV-vis spectroscopic analysis; assay type: physicochemical
# [21] = target: T1, Acetylcholinesterase (Rattus norvegicus, UniProt P37136); assay: Inhibition of rat cortex AChE using acetylthiocholine iodide as substrate measured after 20 mins by Ellman's method
# T1 sequence (P37136 whole entry): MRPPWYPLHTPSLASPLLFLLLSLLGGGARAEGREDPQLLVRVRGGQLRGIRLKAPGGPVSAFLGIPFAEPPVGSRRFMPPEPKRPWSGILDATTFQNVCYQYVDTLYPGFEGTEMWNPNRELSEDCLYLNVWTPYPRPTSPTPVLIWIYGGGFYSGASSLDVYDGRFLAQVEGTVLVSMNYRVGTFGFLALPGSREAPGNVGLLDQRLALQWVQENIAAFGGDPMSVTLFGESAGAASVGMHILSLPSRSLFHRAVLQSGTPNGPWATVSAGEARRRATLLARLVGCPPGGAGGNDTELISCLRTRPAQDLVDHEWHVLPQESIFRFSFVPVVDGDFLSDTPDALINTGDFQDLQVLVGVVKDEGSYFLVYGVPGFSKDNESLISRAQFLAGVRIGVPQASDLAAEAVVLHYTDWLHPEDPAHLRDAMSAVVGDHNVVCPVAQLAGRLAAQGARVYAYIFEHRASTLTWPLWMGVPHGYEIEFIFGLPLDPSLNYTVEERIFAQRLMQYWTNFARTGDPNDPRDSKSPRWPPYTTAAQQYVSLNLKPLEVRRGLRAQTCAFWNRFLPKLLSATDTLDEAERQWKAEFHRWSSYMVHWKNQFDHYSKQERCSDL
# [22] = Cytotoxicity against human SH-SY5Y cells assessed as reduction in cell viability after 24 hrs in presence of Cu2+ ion by MTT assay; assay type: toxicity, cell-based
# [23] = Inhibition of rat serum BuChE using butyrylthiocholine as substrate measured after 20 mins by Ellman's method
# [24] = Cytotoxicity against human SH-SY5Y cells assessed as reduction in cell viability at 10 and 30 uM measured after 24 hrs by MTT assay; assay type: toxicity, cell-based
# [25] = Metal chelating activity assessed as Fe3+-compound complex formation at 40 uM measured after 1 hr by UV-vis spectroscopic analysis; assay type: physicochemical
compound,measurement,setting,value
CCCN(CCC)Cc1cn(-c2cc(NC(=S)NCC)ncn2)cn1.Cl,solubility at 24 h,[1],3380 µg/mL
same,Kp,[2],0.324
same,concentration at 1 h,[3],296 ng/g
same,concentration at 1 h,[4],579 ng/g
same,Kp,[5],0.141
same,concentration at 1 h,[6],1740 ng/mL
CCCN(CCC)Cc1cn(-c2cc(NC(=S)NCC)ncn2)cn1 [listing 1 of 2 here],Activity,[7],Active
same,inhibition,[8],32.8%
same,Activity,[9],Active
same,Activity,[10],Active
same,Activity (umolequiv/umol),[11],1.28
same,inhibition,[12],Active
same,Ratio IC50,[13],> 196
same,inhibition,[14],Active
same,inhibition,[15],Active
CCCN(CCC)Cc1cn(-c2cc(NC(=S)NCC)ncn2)cn1 [listing 2 of 2 here],Activity,[16],Active
same,Activity,[17],Active
same,Papp at 10 h,[18],7.5 ×10⁻⁶ cm/s
same,Activity,[19],Toxic
same,Activity,[20],Active
same,solubility at 24 h,[1],58 µg/mL
same,IC50,[21],0.204 µM
same,Activity,[22],Non-Toxic
same,IC50,[23],> 40 µM
same,Activity,[24],Non-Toxic
same,Activity,[25],Active
